Several values for one entry are separate records, joined by “and”; a condition that tells them apart may be missing. Equal values may be shown once.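 Where inhibition never reached the appropriate level, the endpoint shown equals the highest concentration tested. Otherwise, values were interpolated linearly from a five-concentration, 48-hour dose response in 96-well plates. GI50 = concentration required for 50% inhibition of growth. TGI marks complete inhibition of growth.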
Columns and labels:
Test in all cases: inhibition of tumour cell growth, NCI panel, 48 h
DMS 273 small cell lung = tested on: DMS 273 small cell lung
COLO 205 colon = tested on: COLO 205 colon
M19-MEL melanoma = tested on: M19-MEL melanoma
HOP-62 NSCLC = tested on: HOP-62 NSCLC
KM12 colon = tested on: KM12 colon
HCC-2998 colon = tested on: HCC-2998 colon
LOX IMVI melanoma = tested on: LOX IMVI melanoma
EKVX NSCLC = tested on: EKVX NSCLC
HOP-92 NSCLC = tested on: HOP-92 NSCLC
KM20L2 colon = tested on: KM20L2 colon

With CC1[C@@H]2[C@@H](C=C3C4CCC5Cc6nc7c(nc6C[C@@]5(C)C4C[C@H](O)[C@]32CO)CC2CCC3C4=C[C@H]5O[C@@]6(O[C@@](C)(CO)C[C@@H]6O)C(C)[C@@]5(O)[C@]4(C)[C@@H](O)CC3[C@]2(C)C7)O[C@]12CCC(C)(C)O2 (stereo partly specified) the GI50 (DMS 273 small cell lung) was < 0.000365 µM, the GI50 (COLO 205 colon) was 0.0423 µM and the TGI (COLO 205 colon) was 0.566 µM and 0.138 µM. For the same molecule, the GI50 (M19-MEL melanoma) was 2.13 µM, the TGI (M19-MEL melanoma) was > 3.65 µM and the GI50 (HOP-62 NSCLC) was < 0.000365 µM. The GI50 (KM12 colon) was 0.17 µM, the TGI (KM12 colon) was 0.611 µM and > 3.65 µM and the GI50 (HCC-2998 colon) was 1.34 µM. For the same molecule, the TGI (HCC-2998 colon) was 0.39 µM and > 3.65 µM, the GI50 (LOX IMVI melanoma) was 0.017 µM and 0.0071 µM and the TGI (LOX IMVI melanoma) was > 3.65 µM. The GI50 (EKVX NSCLC) was 0.0119 µM, the TGI (EKVX NSCLC) was 0.749 µM and 2 µM and the TGI (HOP-92 NSCLC) was 0.084 µM. For the same molecule, the GI50 (KM20L2 colon) was 0.00719 µM and the TGI (KM20L2 colon) was 0.619 µM.
CC1=CCC[C@@]2(C)C(CC[C@@H]2C(C)/C=C/C(C)C)c2ccc(cc2C(=O)O)C[C@@H](O)CC1 (stereo partly specified) was tested, and the TGI (DMS 273 small cell lung) was 34.2 µM, the TGI (M19-MEL melanoma) was 29.6 µM and the TGI (HOP-62 NSCLC) was 36.5 µM. The TGI (KM12 colon) was 24.8 µM, the TGI (HCC-2998 colon) was 23.5 µM and the TGI (LOX IMVI melanoma) was 19 µM. It also gave a TGI (HOP-92 NSCLC) of 28.9 µM.
For COC(=O)Cc1cc(OC)c(OC)cc1Br, the TGI (COLO 205 colon) was > 100 µM, the TGI (M19-MEL melanoma) was > 100 µM and the TGI (HOP-62 NSCLC) was > 100 µM. For the same molecule, the TGI (KM12 colon) was > 100 µM, the TGI (HCC-2998 colon) was > 100 µM and the TGI (EKVX NSCLC) was > 100 µM. The TGI (HOP-92 NSCLC) was > 100 µM and the TGI (KM20L2 colon) was > 100 µM.
For CCOc1ccc2nc(NC(=O)C(=O)C(C(=O)c3ccccc3-c3ccccc3)C3OC(=O)c4ccccc43)sc2c1 (stereo unspecified), the TGI (DMS 273 small cell lung) was > 100 µM, the TGI (COLO 205 colon) was 37 µM and the TGI (M19-MEL melanoma) was 44.2 µM. For the same molecule, the TGI (HOP-62 NSCLC) was 99.3 µM, the TGI (KM12 colon) was 32.5 µM and the TGI (HCC-2998 colon) was 33.1 µM. The TGI (LOX IMVI melanoma) was 39.4 µM, the TGI (EKVX NSCLC) was 47.5 µM and the TGI (HOP-92 NSCLC) was 46.8 µM. The TGI (KM20L2 colon) was 54.6 µM.
With OCCOc1ccc(-c2cc(-c3ccccn3)nc(-c3ccccn3)c2)cc1 the TGI (COLO 205 colon) was 6.29 µM, the TGI (M19-MEL melanoma) was 0.593 µM and the TGI (HOP-62 NSCLC) was > 18.9 µM. The TGI (KM12 colon) was > 100 µM, the TGI (HCC-2998 colon) was > 18.4 µM and the TGI (LOX IMVI melanoma) was 6.43 µM. For the same molecule, the TGI (EKVX NSCLC) was > 100 µM, the TGI (HOP-92 NSCLC) was > 100 µM and the TGI (KM20L2 colon) was > 41.8 µM.
O=C(O)CN(c1ccccc1)S(=O)(=O)c1ccc(NC(=O)c2ccccc2)cc1 was tested, and the TGI (DMS 273 small cell lung) was > 100 µM, the TGI (COLO 205 colon) was > 100 µM and the TGI (M19-MEL melanoma) was > 100 µM. The TGI (LOX IMVI melanoma) was > 100 µM, the TGI (EKVX NSCLC) was > 100 µM and the TGI (HOP-92 NSCLC) was > 100 µM. For the same molecule, the TGI (KM20L2 colon) was > 100 µM.
Work on CCCCCCCCCCCOC(=S)NC(C)C yielded a TGI (DMS 273 small cell lung) of 34.4 µM, a TGI (M19-MEL melanoma) of 58.6 µM and a TGI (HOP-62 NSCLC) of 36.6 µM. For the same molecule, the TGI (KM12 colon) was 37.7 µM, the TGI (HCC-2998 colon) was 31.1 µM and the TGI (LOX IMVI melanoma) was 30.7 µM. For the same molecule, the TGI (EKVX NSCLC) was 43.3 µM, the TGI (HOP-92 NSCLC) was 32.2 µM and the TGI (KM20L2 colon) was 30.2 µM.
CC1=NN(C(=O)c2ccccc2O)C(=O)/C1=C/c1ccc([N+](=O)[O-])cc1 was tested, and the GI50 (COLO 205 colon) was 7.43 µM, the TGI (COLO 205 colon) was > 88 µM and the TGI (M19-MEL melanoma) was > 100 µM. The GI50 (KM12 colon) was 0.779 µM, the TGI (KM12 colon) was > 100 µM and the GI50 (LOX IMVI melanoma) was 0.854 µM. For the same molecule, the TGI (LOX IMVI melanoma) was > 40.9 µM, the GI50 (EKVX NSCLC) was 2.68 µM and the TGI (EKVX NSCLC) was > 100 µM. For the same molecule, the GI50 (HOP-92 NSCLC) was 0.609 µM, the TGI (HOP-92 NSCLC) was > 100 µM and the TGI (KM20L2 colon) was > 100 µM.
In the case of N=C(c1ccccc1)N(c1ccccc1)c1ccccc1, the TGI (DMS 273 small cell lung) is reported as > 100 µM, the TGI (COLO 205 colon) is reported as > 100 µM and the TGI (M19-MEL melanoma) is reported as > 100 µM. For the same molecule, the TGI (HOP-62 NSCLC) was > 100 µM, the TGI (KM12 colon) was > 100 µM and the TGI (HCC-2998 colon) was > 100 µM. The TGI (LOX IMVI melanoma) was > 100 µM, the TGI (EKVX NSCLC) was > 100 µM and the TGI (KM20L2 colon) was > 100 µM.
In the case of O=C(CC1=Nc2nnc(-c3nnc4n3C(=O)C(CC(=O)c3cccnc3)=N4)n2C1=O)c1cccnc1, the TGI (DMS 273 small cell lung) is reported as > 100 µM, the TGI (COLO 205 colon) is reported as > 100 µM and the TGI (M19-MEL melanoma) is reported as > 100 µM. The TGI (HOP-62 NSCLC) was > 100 µM, the TGI (KM12 colon) was > 100 µM and the TGI (HCC-2998 colon) was > 100 µM. For the same molecule, the TGI (LOX IMVI melanoma) was > 100 µM, the TGI (HOP-92 NSCLC) was > 100 µM and the TGI (KM20L2 colon) was > 100 µM.
With CCC1(C)NN=c2s/c(=C/c3ccc(OC)cc3)c(=O)n2N1 (stereo unspecified) the TGI (DMS 273 small cell lung) was > 100 µM, the TGI (COLO 205 colon) was > 100 µM and the TGI (HOP-62 NSCLC) was > 100 µM. The TGI (KM12 colon) was > 100 µM, the TGI (HCC-2998 colon) was > 100 µM and the TGI (LOX IMVI melanoma) was > 100 µM. For the same molecule, the TGI (EKVX NSCLC) was > 100 µM, the TGI (HOP-92 NSCLC) was 96.3 µM and the TGI (KM20L2 colon) was > 100 µM.
